Here are results for 37 molecules from US4474783A, “Cyclopropylmethyl piperazines, the process for preparing the same and their use in therapeutics” (Innothera, priority 1980, dated 1984).

Data set [1] in a line: acute toxicity, intravenous, male mice (LD50, Litchfield and Wilcoxon). Conditions: mouse, in vivo; for LD50 at 168 h: i.v., 10 animals per group, 7 days observation, 95% confidence limit in brackets. Here is the method:
A toxicological study was also carried out on the compounds according to the invention.
More particularly, the acute toxicity was studied by introduction into the veins of male mice (10 animals per group), E.O.P.S. of the Swiss strain (bred by EVIC-CEBA).
The compounds to be tested were rendered soluble in physiological serum at variable concentrations and the solution obtained injected into the veins in an amount of 10 ml per kg of body weight. Administration was carried out in 20 seconds.
The animals were kept under clinical observation for three hours after administration and then daily for 7 days.
The lethal doses 50 (LD50) were calculated using the method of Litchfield and Wilcoxon (J. Pharmacol. Exp. Therap., 96-99, 1949) on the basis of the different mortality rates observed.

The test system of data set [2] is isolated left auricle of the Guinea pig. The data set can be described thus: inotropic activity: contractile force of isolated, electrically stimulated left auricle (Lumley, Broadley and Levy technique; cumulative method of Van Rossum). Conditions: for EC50 / Emax: Cavia porcellus; for EC50 / Inotropic action pD2: 36° C., cumulative concentrations, minimum of three dose-action curves; for EC50: read-out: Inotropic action pD2 (converted); for Emax / Inotropic action α (intrinsic activity): relative to dopamine; for Emax: α=1, read-out: Inotropic action α (intrinsic activity); for Inotropic action α (intrinsic activity): α=1. An excerpt: The technique used is that of P. Lumley, K. J. Broadley and G. P. Levy described in Cardiovascular Research, 11, 17-25, 1977. This technique is used to study the β1 cardiac inotrope function; the β1 receptors being cardiac in the Guinea pig as in man, the results obtained with the Guinea pig are applicable to man.
Guinea pigs of either sex are killed by a knock and bled; the left auricle is rapidly removed and immediately immersed in a Kreibs-Henseleit solution, the temperature being thermostatically maintained at 36° C. and aerated by a mixture of O2 and CO2 (95% and 5%). Two linen threads are attached to its ends: one is used to make contact between the auricle and a silver negative stimulating electrode, the other serves to connect the preparation to an isometric myograph (F-50 NARCO) and then to a recording system (Physiograph type M-K III NARCO).
Some 60 minutes are needed to ensure stability of the preparation.
Throughout the test, the auricle is activated electrically by a neurostimulator (Equipment Industriel II): voltage: supramaximum--width: 5 milli/sec.--frequency: 90 to 120 beats per minute.
Agonists, reference substances or compounds according to the invention, are added to the nutrient medium using the cumulative method of Van Rossum (Arch. Inter. Pharmacodyn., 143, 299-330, 1963). After adding each given amount of agonists, three minutes are allowed to pass before a further given amount of the product under study is added according to the method described above. The response of the organ to each concentration was assessed by the resultant increase in contractile force measured in gram. This was expressed as a percentage of the maximum increase (100%) for each compound and a dose-action curve was plotted. The agonist effect was quantified by calculating pD2 (E. J. Ariens and J. M. Van Rossum., Arch. Intern. Pharmacodyn. CX, No. 2, 2, 19 and Arch. Inter. Pharmacodyn. 143, 299-330, 1963) which characterizes the affinity of the compound under test for the receptors.
The agonist effect was also characterized by the intrinsic activity […] which defines the relative power of the agonist with respect to a standard which, in the tests, was dopamine, the intrinsic activity of which is taken arbitrarily to be α=1.
The results obtained are shown in table II below, it being assumed that:
the higher the value of pD2 and the more marked the affinity of the compound under test for the receivers, and
the higher the value of α, the better is the intrinsic activity.

What is called LD50 is the dose expected to kill half of the subjects tested. Read a low LD50 as greater toxicity. As to `CCCCCN1CCN(CC2CC2)CC1` [Code No. 4], the LD50 at 168 h in data set [1] was found to be 37.5 mg/kg.

Regarding `O=C(COc1ccc(F)cc1)N1CCN(CC2CC2)CC1` [compound 22], in data set [1], the LD50 at 168 h is 100 mg/kg. Further, in data set [2], the EC50 was 17.8 µM and the Emax was found to be 48%.

Molecule `CN1CCN(CC2CC2)CC1` [Code No. 2] yielded an LD50 at 168 h in data set [1] of 320 mg/kg. Further, in data set [2], the EC50 is 112 µM and the Emax was 48%.

In data set [1], `c1ccc(CN2CCN(CC3CC3)CC2)cc1` [compound 14] gave an LD50 at 168 h of 46 mg/kg.

Molecule `COc1ccccc1N1CCN(CC2CC2)CC1` [compound 10] had an LD50 at 168 h in data set [1] of 34 mg/kg.

As to `CCN(CC)CCN1CCN(CC2CC2)CC1C` (centres unmarked) [compound 25], the LD50 at 168 h in data set [1] stood at 150 mg/kg.

`CC(CN1CCN(CC2CC2)CC1)C(=O)O` (centres unmarked) [compound 7] came in with an LD50 at 168 h in data set [1] of 190 mg/kg.

With `COc1cc(C(=O)N2CCN(CC3CC3)CC2C)cc(OC)c1OC(C)=O` (centres unmarked) [compound 39], the LD50 at 168 h in data set [1] came out at 225 mg/kg. In data set [2], the EC50 was 25.7 µM and the Emax is 69%.

`CC1CN(CC2CC2)CCN1CCCN1CCOCC1` (centres unmarked) [compound 34]: the LD50 at 168 h in data set [1] is 215 mg/kg. In addition, in data set [2], the EC50 is 5.13 µM and the Emax worked out at 24%.

On to `CC1CN(CC2CC2)CCN1` (centres unmarked) [compound 23], for which the LD50 at 168 h in data set [1] turned out to be 280 mg/kg. Further, in data set [2], the EC50 is 178 µM and the Emax worked out at 75%.

`FC(F)(F)c1cccc(N2CCN(CC3CC3)CC2)c1` [compound 11] displayed an LD50 at 168 h in data set [1] of 30 mg/kg.

The molecule `CC1CN(CC2CC2)CCN1CCN(C)C` (centres unmarked) [compound 24] registered a median lethal dose (LD50) at 168 h in data set [1] of 200 mg/kg.

The molecule `CCOC(=O)Oc1c(OC)cc(C(=O)N2CCN(CC3CC3)CC2)cc1OC` [compound 18] registered an LD50 at 168 h in data set [1] of 225 mg/kg.

Turning to `CC1CN(CC2CC2)CCN1CCN1CCCCCC1` (centres unmarked) [compound 28], the LD50 at 168 h in data set [1] turned out to be 95 mg/kg.

Turning to `CC(=O)c1ccc(N2CCN(CC3CC3)CC2)cc1` [compound 12], in data set [1], the LD50 at 168 h turned out to be 90 mg/kg. Also, in data set [2], the EC50 is 55 µM and the Emax was determined as 82%.

In turn, `COc1cc(C(=O)N2CCN(CC3CC3)CC2C)cc(OC)c1OC` (centres unmarked) [compound 38] came in with an LD50 at 168 h in data set [1] of 130 mg/kg.

For `CC1CN(CC2CC2)CCN1CCN1CCOCC1` (centres unmarked) [compound 29], in data set [1], the median lethal dose (LD50) at 168 h is 250 mg/kg.

Take `CCOC(=O)N1CCN(CC2CC2)CC1` [6a]: in data set [1], the LD50 at 168 h is 41 mg/kg. In addition, in data set [2], the EC50 is 1260 µM and the Emax came to 58%.

Turning to `CC1CN(CC2CC2)CCN1CCCN1CCCCCC1` (centres unmarked) [compound 33], in data set [1], the LD50 at 168 h was 130 mg/kg.

`COc1cc(C(=O)N2CCN(CC3CC3)CC2)cc(OC)c1OC` [compound 17]: the median lethal dose (LD50) at 168 h in data set [1] worked out at 245 mg/kg. Besides, in data set [2], the “Inotropic action pD2” value turned out to be 3.50 and the “Inotropic action α (intrinsic activity)” value is recorded as 0.19.

In data set [1], `O=C(c1ccc2c(c1)OCO2)N1CCN(CC2CC2)CC1` [compound 15] yielded an LD50 at 168 h of 155 mg/kg. Moreover, in data set [2], the EC50 was 363 µM and the Emax is 88%.

In data set [1], `CC1CN(CC2CC2)CCN1CCCN1CCCCC1` (centres unmarked) [compound 32] yielded a median lethal dose (LD50) at 168 h of 162 mg/kg. Besides, in data set [2], the EC50 was 0.525 µM and the Emax turned out to be 12%.

`C1CC1CN1CCN(CC2CC2)CC1` [3a] returned an LD50 at 168 h in data set [1] of 110 mg/kg. Moreover, in data set [2], the EC50 was 30.2 µM and the Emax came to 69%.

As to `CC1CN(CC2CC2)CCN1Cc1ccc2c(c1)OCO2` (centres unmarked) [compound 35], the LD50 at 168 h in data set [1] was 77 mg/kg. For the same molecule, in data set [2], the EC50 was 5.25 µM and the Emax came out at 17%.

As to `COc1ccc(OCC(=O)N2CCN(CC3CC3)CC2)cc1` [compound 21], the LD50 at 168 h in data set [1] amounted to 115 mg/kg. Also, in data set [2], the EC50 is 22.4 µM and the Emax was 69%.

As for `CCN(CC)CCCN1CCN(CC2CC2)CC1C` (centres unmarked) [compound 30], the 50% lethal dose (LD50) at 168 h in data set [1] amounted to 135 mg/kg.

`CC1CN(CC2CC2)CCN1CC1CC1` (centres unmarked) [compound 13] returned a 50% lethal dose (LD50) at 168 h in data set [1] of 104 mg/kg. Moreover, in data set [2], the EC50 was 3.63 µM and the Emax was 36%.

The molecule `OCCN1CCN(CC2CC2)CC1` [Code No. 5] gave an LD50 at 168 h in data set [1] of 460 mg/kg.

`COc1cc(C=CC(=O)N2CCN(CC3CC3)CC2)cc(OC)c1OC` [compound 20] came in with a median lethal dose (LD50) at 168 h in data set [1] of 52 mg/kg. For the same molecule, in data set [2], the EC50 was 776 µM and the Emax was found to be 49%.

`CC1CN(CC2CC2)CCN1CCCN1CCCC1` (centres unmarked) [compound 31] gave an LD50 at 168 h in data set [1] of 165 mg/kg. In addition, in data set [2], the EC50 was 26.9 µM and the Emax is 25%.

`CC1CN(CC2CC2)CCN1CCN1CCCC1` (centres unmarked) [compound 26] gave an LD50 at 168 h in data set [1] of 158 mg/kg. Also, in data set [2], the EC50 is 14.1 µM and the Emax was determined as 32%.

`O=C(C=Cc1cccc(C(F)(F)F)c1)N1CCN(CC2CC2)CC1` [compound 19]: the LD50 at 168 h in data set [1] is 95 mg/kg.

With `CC1CN(CC2CC2)CCN1Cc1ccc2c(c1Cl)OCO2` (centres unmarked) [compound 36], the LD50 at 168 h in data set [1] is 65 mg/kg.

Regarding `CC1CN(CC2CC2)CCN1CCN1CCCCC1` (centres unmarked) [compound 27], the LD50 at 168 h in data set [1] worked out at 155 mg/kg. In data set [2], the EC50 was 47.9 µM and the Emax is 40%.

Broadly, the mortality is the share of the test organisms that died. Low readings indicate more survivors, high ones fewer survivors. Turning to `COc1cc(C(=O)N2CCN(CC3CC3)CC2)cc(OC)c1OC` [compound 16], the mortality at 168 h in data set [1] (100 mg/kg i.v.) is 30%. Besides, in data set [2], the “Inotropic action pD2” value is 5.06 and the “Inotropic action α (intrinsic activity)” value is recorded as 0.52.

In data set [1], `CC1CN(CC2CC2)CCN1Cc1csc2ccccc12` (centres unmarked) [compound 37] gave an LD50 at 168 h of 40 mg/kg.

`CC(CN1CCN(CC2CC2)CC1)C(=O)NCc1ccccc1` (centres unmarked) [compound 8] showed an LD50 at 168 h in data set [1] of 245 mg/kg. Besides, in data set [2], the EC50 was 53.7 µM and the Emax was determined as 57%.
